# Measurements: ChEMBL document CHEMBL4483862, “Open-source discovery of chemical leads for next-generation chemoprotective antimalarials” (2018)
# Tested on: Plasmodium berghei
# Test: Luciferase/luciferin-expressing antifolate-resistant parasites were used to infect a culture of HepG2 cells that were pre-incubated with compounds. Infected hepatocytes emit light due to the luciferase reaction. Assay results are presented as the percent inhibition of light emission compared to control. […]
# Type: functional
# Settings: sporozoite; for IC90: read-out: LUCIFERASE INFECTION ASSAY - IC90
# [1] = read-out: LUCIFERASE INFECTION ASSAY - IC50
SMILES,IC90 [µM],IC50 [1] [µM],also measured
Cc1cccc(-c2cn3c(-c4ccc(CO)cc4)cnc3cn2)c1C,> 10,–,"IC50 (PBLUC_HILL_SLOPE 11.7, PBLUC_R_SQUARED 0.283, read-out: LUCIFERASE INFECTION ASSAY - IC50): 8.31 µM"
COc1ccccc1C(=O)NCC#Cc1cccc(C(F)(F)F)c1,8.91,–,"IC50 (PBLUC_HILL_SLOPE 4.8, PBLUC_R_SQUARED 0.508, read-out: LUCIFERASE INFECTION ASSAY - IC50): 5.64 µM"
Cc1nn(C(=O)c2c(Cl)cccc2Cl)c(C)c1Cc1c(F)cccc1Cl,> 8.02,7,–
O=S(=O)(Nc1cccc(C(F)(F)F)c1)c1ccc(S(=O)(=O)c2ncc(C(F)(F)F)cc2Cl)s1,> 5.99,> 5.99,–
Cc1c(C(=O)NCCc2ccc3c(c2)OCCO3)cnn1-c1ccc(Cl)cc1,> 2,> 2,–
Cc1nc2c3c(C)c(C)n(Cc4ccccc4)c3ncn2n1,> 11.3,–,"IC50 (PBLUC_HILL_SLOPE 3.56, PBLUC_R_SQUARED 0.538, read-out: LUCIFERASE INFECTION ASSAY - IC50): 9.25 µM"
O=C(Nc1cccc(C(F)(F)F)c1)c1cccc(Cn2cc(C(F)(F)F)ccc2=O)c1,> 7.49,–,"IC50 (PBLUC_HILL_SLOPE 12.4, PBLUC_R_SQUARED 0.188, read-out: LUCIFERASE INFECTION ASSAY - IC50): 6.37 µM"
N#Cc1c(N2CCCC(O)C2)nc(N)c2c(N)nc3c(c12)CC(=O)N3C12CC3CC(CC(C3)C1)C2 (stereo unspecified),> 10,–,"IC50 (HEPG2TOX_HILL_SLOPE 8.91, HEPG2TOX_R_SQUARED 0.422, PBLUC_HILL_SLOPE 4.43, PBLUC_R_SQUARED 0.134, read-out: LUCIFERASE INFECTION ASSAY - IC50): 6.8 µM"
Cc1nn(-c2cccc(C(F)(F)F)c2)c2c1C=Nc1cc(S(=O)(=O)N3CCOCC3)ccc1O2,> 10,–,"IC50 (PBLUC_HILL_SLOPE 4.52, PBLUC_R_SQUARED 0.617, read-out: LUCIFERASE INFECTION ASSAY - IC50): 8.73 µM"
CN(C)c1ccc(-c2cc3c(cn2)nc(NCc2ccccc2)n3C)cc1,> 10,> 10,–
COc1cccc2cc(C(=O)/C=C/c3c(C)nc4sc(C)cn34)oc12,> 10,> 10,–
O=C(Nc1cccc(Cl)c1)Nc1ccc2nc(-c3ccncc3)nn2c1,3.69,–,"IC50 (PBLUC_HILL_SLOPE 15.9, PBLUC_R_SQUARED 0.357, read-out: LUCIFERASE INFECTION ASSAY - IC50): 3.21 µM"
CCCc1ccc(C(=O)C(C)Sc2nnc(Cc3cccc4ccccc34)n2N)cc1 (stereo unspecified),> 10,–,"IC50 (FFLUC_HILL_SLOPE 1.29, FFLUC_R_SQUARED 0.471, read-out: LUCIFERASE INFECTION ASSAY - IC50): > 10 µM"
Cc1cc(C(C)(C)C)cc(S(=O)(=O)Nc2ccc(C(=O)OC(C)C(=O)c3cc(C)n(-c4ccccc4)c3C)cc2)c1C (stereo unspecified),> 10,–,"IC50 (FFLUC_HILL_SLOPE 4.56, FFLUC_R_SQUARED 0.633, PBLUC_HILL_SLOPE 9.36, PBLUC_R_SQUARED 0.441, read-out: LUCIFERASE INFECTION ASSAY - IC50): 8.93 µM"
N#CCOc1cc(Cl)cc(Cl)c1,> 16.3,–,"IC50 (FFLUC_HILL_SLOPE 1.89, FFLUC_R_SQUARED 0.0257, read-out: LUCIFERASE INFECTION ASSAY - IC50): > 16.3 µM"
CCn1c2ccccc2c2cc(NC(=O)CN3C(=O)NC4(CCCc5ccccc54)C3=O)ccc21 (stereo unspecified),9.72,–,"IC50 (FFLUC_HILL_SLOPE 13.4, FFLUC_R_SQUARED 0.411, HEPG2TOX_HILL_SLOPE 9.13, HEPG2TOX_R_SQUARED 0.498, PBLUC_HILL_SLOPE 3.53, PBLUC_R_SQUARED 0.448, read-out: LUCIFERASE INFECTION ASSAY - IC50): 5.21 µM"
COc1ccc(-c2cnc3cnc(-c4ccc(CO)cc4)cn23)cn1,9.63,–,"IC50 (PBLUC_HILL_SLOPE 6.35, PBLUC_R_SQUARED 0.601, read-out: LUCIFERASE INFECTION ASSAY - IC50): 6.81 µM"
O=S(=O)(NCCNc1cnccn1)c1ccc(OC(F)(F)F)cc1,> 10,> 10,–
O=C(Cc1csc(NC(=O)c2ccccc2)n1)Nc1ncccc1O,> 10,> 10,–
O=C(Nc1ncccc1O)c1csc(COc2ccc(Cl)cc2)n1,7.89,–,"IC50 (HEPG2TOX_HILL_SLOPE 10.3, HEPG2TOX_R_SQUARED 0.899, PBLUC_HILL_SLOPE 4.56, PBLUC_R_SQUARED 0.315, read-out: LUCIFERASE INFECTION ASSAY - IC50): 4.88 µM"
CC(=O)NCc1ccc(-c2csc(NC(=O)c3cc(-c4ccco4)nc4c3c(C)nn4C)n2)cc1,> 10,> 10,–
CCCc1cc(=O)n2nc(COc3ccccc3)c(-c3ccccc3)c2[nH]1,5.37,–,"IC50 (HEPG2TOX_HILL_SLOPE 7.2, HEPG2TOX_R_SQUARED 0.777, PBLUC_HILL_SLOPE 5.33, PBLUC_R_SQUARED 0.154, read-out: LUCIFERASE INFECTION ASSAY - IC50): 3.56 µM"

SMILES,IC90 [µM],IC50 [1] [µM],also measured
O=C(NCCc1nc(-c2ccccc2)no1)c1cc2cc(Cl)ccc2o1,> 8.97,–,"IC50 (PBLUC_HILL_SLOPE 0.5, PBLUC_R_SQUARED 0.259, read-out: LUCIFERASE INFECTION ASSAY - IC50): > 8.97 µM"
COCC(C)NS(=O)(=O)c1c(C(C)C)cc(C(C)C)cc1C(C)C (stereo unspecified),> 9.28,> 9.28,–
CC1CC(=O)N(CC(=O)Nc2ccc(C(F)(F)F)cc2)N=C1c1ccc(Cl)cc1 (stereo unspecified),> 10,–,"IC50 (FFLUC_HILL_SLOPE 1.68, FFLUC_R_SQUARED 0.0802, HEPG2TOX_HILL_SLOPE 1.48, HEPG2TOX_R_SQUARED 0.946, read-out: LUCIFERASE INFECTION ASSAY - IC50): > 10 µM"
CCN(CC1COc2ccccc2O1)C(=O)c1ccccc1CSc1nc2nc(C)cc(C)n2n1 (stereo unspecified),> 10,> 10,–
O=C(Nc1ccccc1)c1cc(Nc2ccc(O)cc2)ncn1,> 10.8,–,"IC50 (FFLUC_HILL_SLOPE 0.974, FFLUC_R_SQUARED 0.921, PBLUC_HILL_SLOPE 1.57, PBLUC_R_SQUARED 0.726, read-out: LUCIFERASE INFECTION ASSAY - IC50): 5.2 µM"
Cn1ncc(C(C#N)c2nc3ccccc3s2)c(Cl)c1=O (stereo unspecified),> 10,> 10,–
N#Cc1ccc(CN2CCN(c3ccc(-c4nc5ccccc5[nH]4)cn3)CC2)cc1,> 10,> 10,–
O=C(/C=C/c1cccnc1)c1ccc(S(=O)(=O)N2CCCC2)cc1,7.23,–,"IC50 (HEPG2TOX_HILL_SLOPE 1.78, HEPG2TOX_R_SQUARED 0.606, PBLUC_HILL_SLOPE 4.03, PBLUC_R_SQUARED 0.736, read-out: LUCIFERASE INFECTION ASSAY - IC50): 4.19 µM"
O=C(Nc1ccc(OCc2nnnn2-c2ccccc2)cc1)c1ccccc1,> 8.89,> 8.89,–
O=C(Cn1ncc(Br)c(Br)c1=O)C12CC3CC(CC(C3)C1)C2,> 10,–,"IC50 (HEPG2TOX_HILL_SLOPE 11, HEPG2TOX_R_SQUARED 0.947, PBLUC_HILL_SLOPE 1.04, PBLUC_R_SQUARED 0.291, read-out: LUCIFERASE INFECTION ASSAY - IC50): 2.75 µM"
Cc1cc(Cl)ccc1OCCCC(=O)NCCn1c(C)nc2ccccc21,> 10,–,"IC50 (PBLUC_HILL_SLOPE 11.5, PBLUC_R_SQUARED 0.538, read-out: LUCIFERASE INFECTION ASSAY - IC50): 9.27 µM"
COc1ccc(Cc2nnc(SCC(=O)/C(C#N)=C(\C)N)n2-c2ccc(Oc3ccccc3)cc2)cc1OC,> 10,> 10,–
CC(C)Cc1ccc(C(Nc2ccc3nnnn3n2)C(C)C)cc1 (stereo unspecified),3.82,–,"IC50 (PBLUC_HILL_SLOPE 13.1, PBLUC_R_SQUARED 0.631, read-out: LUCIFERASE INFECTION ASSAY - IC50): 3.23 µM"
CC(C)CC(N)c1csc(Nc2nncc3ccccc23)n1 (stereo unspecified),4.43,–,"IC50 (HEPG2TOX_HILL_SLOPE 11.3, HEPG2TOX_R_SQUARED 0.262, PBLUC_HILL_SLOPE 9.28, PBLUC_R_SQUARED 0.498, read-out: LUCIFERASE INFECTION ASSAY - IC50): 3.5 µM"
COc1cc(Nc2ncc3c(n2)CCN(C(=O)Nc2ccc(C(C)C)cc2)C3)cc(OC)c1OC,6.4,–,"IC50 (HEPG2TOX_HILL_SLOPE 2.3, HEPG2TOX_R_SQUARED 0.688, PBLUC_HILL_SLOPE 0.8, PBLUC_R_SQUARED 0.723, read-out: LUCIFERASE INFECTION ASSAY - IC50): 0.411 µM"
Cc1c(Cl)cn2c(=O)cc(CN3CCN(c4ccccc4)CC3)nc2c1Cl,> 10,> 10,–
O=C(Oc1ccc(/C=N/Nc2nc3ccccc3s2)c(OC(=O)c2ccco2)c1)c1ccco1,> 10,–,"IC50 (PBLUC_HILL_SLOPE 13.1, PBLUC_R_SQUARED 0.411, read-out: LUCIFERASE INFECTION ASSAY - IC50): 9.2 µM"
Cc1ccc(NC(=O)c2cccn(Cc3ccc(C(F)(F)F)cc3)c2=O)cc1C,> 8.24,> 8.24,–
Clc1cccc(-c2cnc3sc(NCCc4ccncc4)nn23)c1,> 9.27,–,"IC50 (HEPG2TOX_HILL_SLOPE 2.13, HEPG2TOX_R_SQUARED 0.945, PBLUC_HILL_SLOPE 2.85, PBLUC_R_SQUARED 0.464, read-out: LUCIFERASE INFECTION ASSAY - IC50): 5.6 µM"
FC(F)Sc1ccc2nc3ccccc3c(N3CCOCC3)c2c1,0.134,–,"IC50 (PBLUC_HILL_SLOPE 15.6, PBLUC_R_SQUARED 0.79, read-out: LUCIFERASE INFECTION ASSAY - IC50): 0.117 µM"
CC(C)N1C(=O)/C(=N\NC(=S)Nc2cccnc2)c2ccccc21,5.01,–,"IC50 (FFLUC_HILL_SLOPE 0.241, FFLUC_R_SQUARED 0.177, HEPG2TOX_HILL_SLOPE 1.23, HEPG2TOX_R_SQUARED 0.88, PBLUC_HILL_SLOPE 2.27, PBLUC_R_SQUARED 0.476, read-out: LUCIFERASE INFECTION ASSAY - IC50): 1.9 µM"
